Measurements reported in US8445501B2, “Substituted 7-carboxamido-pyrrolo[3,2-d]pyrimidines” (Takeda GmbH, priority 2008, dated 2013).

target: T1, human PDE5 (Homo sapiens, UniProt O76074); experiment: Inhibition of the type 5 phosphodiesterase (PDE5) activity, modified SPA test with platelet lysate; type: biochemical; conditions: PDE5 from human platelet lysate, 0.5 μM cGMP
T1 construct: from tissue; host or cells: platelets from fresh blood of human donors (lysate, 10,000 g supernatant)
Summary of the method: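 SPA-based cGMP hydrolysis, [3H]cGMP tracer in 0.5 μM cGMP, by sonicated human platelet lysate; motapizone (1 μM) and a PDE2 inhibitor (10 nM) block other PDEs. Reaction 15 min at 37 °C after 5 min preincubation, quenched with beads containing IBMX. IC50 from concentration-effect curves.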

Q: With `CCCOc1ccc2c(c1-c1ncnc3c(C(=O)N[C@@H]4CCN(C(=O)COC)C4)c[nH]c13)OCO2` [Example 143, 4-(5-Propoxy-benzo[1,3]dioxol-4-yl)-5H-pyrrolo[3,2-d]pyrimidine-7-carboxylic acid [(R)-1-(2-methoxy-acetyl)-pyrrolidin-3-yl]amide] as the compound, how does the IC50 read?
A: The IC50 was 1.51 nM.

Q: Which IC50 does the source give for `CCCCOc1ccc2c(c1-c1ncnc3c(C(=O)NC4CCN(C(=O)CC)CC4)c[nH]c13)OCO2` [Example 144, 4-(5-Butoxy-benzo[1,3]dioxol-4-yl)-5H-pyrrolo[3,2-d]pyrimidine-7-carboxylic acid (1-propionyl-piperidin-4-yl)-amide] here?
A: The IC50 was 0.115 nM.

Q: `CCCCOc1ccc2c(c1-c1ncnc3c(C(=O)NC4CCN(C(=O)OCC)CC4)c[nH]c13)OCO2` [Example 145, 4-{[4-(5-Butoxy-benzo[1,3]dioxol-4-yl)-5H-pyrrolo[3,2-d]pyrimidine-7-carbonyl]-amino}-piperidine-1-carboxylic acid ethyl ester] was tested. Which IC50 did it give?
A: Its IC50 is 0.1 nM.

Q: `CCCCOc1ccc2c(c1-c1ncnc3c(C(=O)NC4CCN(C=O)CC4)c[nH]c13)OCO2` [Example 146, 4-(5-Butoxy-benzo[1,3]dioxol-4-yl)-5H-pyrrolo[3,2-d]pyrimidine-7-carboxylic acid (1-formyl-piperidin-4-yl)-amide] was tested. Which IC50 did it give?
A: The IC50 was 0.229 nM.

Q: Which IC50 does the source give for `CCCCOc1ccc2c(c1-c1ncnc3c(C(=O)NC4CCCN(C(=O)CC)C4)c[nH]c13)OCO2` (centres unmarked) [Example 147, 4-(5-Butoxy-benzo[1,3]dioxol-4-yl)-5H-pyrrolo[3,2-d]pyrimidine-7-carboxylic acid (1-propionyl-piperidin-3-yl)-amide] here?
A: Its IC50 is 0.24 nM.

Q: `CCCCOc1ccc2c(c1-c1ncnc3c(C(=O)NC4CCCN(C(=O)OCC)C4)c[nH]c13)OCO2` (centres unmarked) [Example 148, 3-{[4-(5-Butoxy-benzo[1,3]dioxol-4-yl)-5H-pyrrolo[3,2-d]pyrimidine-7-carbonyl]-amino}-piperidine-1-carboxylic acid ethyl ester] was tested. Which IC50 did it give?
A: Its IC50 is 0.407 nM.

Q: `CCCCOc1ccc2c(c1-c1ncnc3c(C(=O)NC4CCCN(C(=O)COC)C4)c[nH]c13)OCO2` (centres unmarked) [Example 149, 4-(5-Butoxy-benzo[1,3]dioxol-4-yl)-5H-pyrrolo[3,2-d]pyrimidine-7-carboxylic acid [1-(2-methoxy-acetyl)piperidin-3-yl]-amide] was tested. Which IC50 did it give?
A: The IC50 was 0.295 nM.

Q: Which IC50 does the source give for `CCCCOc1ccc2c(c1-c1ncnc3c(C(=O)N[C@@H]4CCN(C(=O)CC)C4)c[nH]c13)OCO2` [Example 150, 4-(5-Butoxy-benzo[1,3]dioxol-4-yl)-5H-pyrrolo[3,2-d]pyrimidine-7-carboxylic acid ((R)-1-propionyl-pyrrolidin-3-yl)-amide] here?
A: The IC50 was 0.389 nM.

Q: How did the IC50 turn out when `CCCCOc1ccc2c(c1-c1ncnc3c(C(=O)N[C@@H]4CCN(C(=O)OCC)C4)c[nH]c13)OCO2` [Example 151, (R)-3-{[4-(5-Butoxy-benzo[1,3]dioxol-4-yl)-5H-pyrrolo[3,2-d]pyrimidine-7-carbonyl]amino}-pyrrolidine-1-carboxylic acid ethyl ester] was run?
A: The IC50 was 0.295 nM.

Q: How did the IC50 turn out when `COCCOc1cc(OC)ccc1-c1ncnc2c(C(=O)N[C@H]3CC[C@@H](NC(C)=O)CC3)c[nH]c12` [Example 152, cis-4-[4-Methoxy-2-(2-methoxy-ethoxy)-phenyl]-5H-pyrrolo[3,2-d]pyrimidine-7-carboxylic acid (4-acetylamino-cyclohexyl)-amide] was run?
A: The IC50 was 14.5 nM.

Q: Which IC50 does the source give for `COCCOc1cc(OC)ccc1-c1ncnc2c(C(=O)N[C@H]3CC[C@@H](NC(=O)C4CC4)CC3)c[nH]c12` [Example 153, cis-4-[4-Methoxy-2-(2-methoxy-ethoxy)-phenyl]-5H-pyrrolo[3,2-d]pyrimidine-7-carboxylic acid [4-(cyclopropanecarbonyl-amino)cyclohexyl]-amide] here?
A: The IC50 was 6.17 nM.

Q: How did the IC50 turn out when `COCCOc1cc(OC)ccc1-c1ncnc2c(C(=O)N[C@H]3CC[C@@H](NC(=O)COC)CC3)c[nH]c12` [Example 154, cis-4-[4-Methoxy-2-(2-methoxy-ethoxy)-phenyl]-5H-pyrrolo[3,2-d]pyrimidine-7-carboxylic acid [4-(2-methoxy-acetylamino)-cyclohexyl]-amide] was run?
A: Its IC50 is 17 nM.

Q: Which IC50 does the source give for `COCCOc1cc(OC)ccc1-c1ncnc2c(C(=O)N[C@H]3CC[C@H](NC(C)=O)CC3)c[nH]c12` [Example 155, trans-4-[4-Methoxy-2-(2-methoxy-ethoxy)-phenyl]-5H-pyrrolo[3,2-d]pyrimidine-7-carboxylic acid (4-acetylamino-cyclohexyl)-amide] here?
A: Its IC50 is 9.55 nM.

Q: For `COCCOc1cc(OC)ccc1-c1ncnc2c(C(=O)N[C@H]3CC[C@H](NC(=O)C4CC4)CC3)c[nH]c12` [Example 156, trans-4-[4-Methoxy-2-(2-methoxy-ethoxy)-phenyl]-5H-pyrrolo[3,2-d]pyrimidine-7-carboxylic acid [4-(cyclopropanecarbonyl-amino)cyclohexyl]-amide], which IC50 is on record?
A: The IC50 was 6.61 nM.

Q: With `COCCOc1cc(OC)ccc1-c1ncnc2c(C(=O)N[C@H]3CC[C@H](NC(=O)COC)CC3)c[nH]c12` [Example 157, trans-4-[4-Methoxy-2-(2-methoxy-ethoxy)-phenyl]-5H-pyrrolo[3,2-d]pyrimidine-7-carboxylic acid [4-(2-methoxy-acetylamino)-cyclohexyl]-amide] as the compound, how does the IC50 read?
A: The IC50 was 15.5 nM.

Q: How did the IC50 turn out when `COCCOc1cc(OC)ccc1-c1ncnc2c(C(=O)NC3CCN(C(C)=O)CC3)c[nH]c12` [Example 158, 4-[4-Methoxy-2-(2-methoxy-ethoxy)-phenyl]-5H-pyrrolo[3,2-d]pyrimidine-7-carboxylic acid (1-acetyl-piperidin-4-yl)-amide] was run?
A: Its IC50 is 24 nM.

Q: For `COCCOc1cc(OC)ccc1-c1ncnc2c(C(=O)NC3CCN(C(=O)C4CC4)CC3)c[nH]c12` [Example 159, 4-[4-Methoxy-2-(2-methoxy-ethoxy)-phenyl]-5H-pyrrolo[3,2-d]pyrimidine-7-carboxylic acid (1-cyclopropanecarbonyl-piperidin-4-yl)-amide], which IC50 is on record?
A: Its IC50 is 6.03 nM.

Q: How did the IC50 turn out when `COCCOc1cc(OC)ccc1-c1ncnc2c(C(=O)NC3CCN(C(=O)COC)CC3)c[nH]c12` [Example 160, 4-[4-Methoxy-2-(2-methoxy-ethoxy)-phenyl]-5H-pyrrolo[3,2-d]pyrimidine-7-carboxylic acid [1-(2-methoxy-acetyl)-piperidin-4-yl]-amide] was run?
A: The IC50 was 23.4 nM.

Q: `COCCOc1ccc2c(c1-c1ncnc3c(C(=O)N[C@H]4CC[C@H](NC(C)=O)CC4)c[nH]c13)OCO2` [Example 161, trans-4-[5-(2-Methoxy-ethoxy)-benzo[1,3]dioxol-4-yl]-5H-pyrrolo[3,2-d]pyrimidine-7-carboxylic acid (4-acetylamino-cyclohexyl)-amide] was tested. Which IC50 did it give?
A: Its IC50 is 5.25 nM.

Q: For `COCCOc1ccc2c(c1-c1ncnc3c(C(=O)N[C@H]4CC[C@H](NC(=O)C5CC5)CC4)c[nH]c13)OCO2` [Example 162, trans-4-[5-(2-Methoxy-ethoxy)-benzo[1,3]dioxol-4-yl]-5H-pyrrolo[3,2-d]pyrimidine-7-carboxylic acid (4-(cyclopropanecarbonyl-amino)-cyclohexyl]-amide], which IC50 is on record?
A: The IC50 was 11 nM.

Q: `COCCOc1ccc2c(c1-c1ncnc3c(C(=O)N[C@H]4CC[C@@H](NC(C)=O)CC4)c[nH]c13)OCO2` [Example 164, cis-4-[5-(2-Methoxy-ethoxy)-benzo[1,3]dioxol-4-yl]-5H-pyrrolo[3,2-d]pyrimidine-7-carboxylic acid (4-acetylamino-cyclohexyl)-amide] was tested. Which IC50 did it give?
A: The IC50 was 7.76 nM.

Q: With `COCCOc1ccc2c(c1-c1ncnc3c(C(=O)N[C@H]4CC[C@@H](NC(=O)C5CC5)CC4)c[nH]c13)OCO2` [Example 165, cis-4-[5-(2-Methoxy-ethoxy)-benzo[1,3]dioxol-4-yl]-5H-pyrrolo[3,2-d]pyrimidine-7-carboxylic acid [4-(cyclopropanecarbonyl-amino)-cyclohexyl]-amide] as the compound, how does the IC50 read?
A: The IC50 was 5.89 nM.

Q: How did the IC50 turn out when `COCCOc1ccc2c(c1-c1ncnc3c(C(=O)N[C@H]4CC[C@@H](NC(=O)COC)CC4)c[nH]c13)OCO2` [Example 166, cis-4-[5-(2-Methoxy-ethoxy)-benzo[1,3]dioxol-4-yl]-5H-pyrrolo[3,2-d]pyrimidine-7-carboxylic acid [4-(2-methoxy-acetylamino)-cyclohexyl]-amide] was run?
A: Its IC50 is 10.2 nM.

Q: For `CCOC(=O)N[C@H]1CC[C@@H](NC(=O)c2c[nH]c3c(-c4c(OCCOC)ccc5c4OCO5)ncnc23)CC1` [Example 167, cis-[4-({4-[5-(2-Methoxy-ethoxy)-benzo[1,3]dioxol-4-yl]-5H-pyrrolo[3,2-d]pyrimidine-7-carbonyl}-amino)-cyclohexyl]-carbamic acid ethyl ester], which IC50 is on record?
A: Its IC50 is 5.25 nM.

Q: Which IC50 does the source give for `COCCOc1ccc2c(c1-c1ncnc3c(C(=O)NC4CCN(C(C)=O)CC4)c[nH]c13)OCO2` [Example 168, 4-[5-(2-Methoxy-ethoxy)-benzo[1,3]dioxol-4-yl]-5H-pyrrolo[3,2-d]pyrimidine-7-carboxylic acid (1-acetyl-piperidin-4-yl)-amide] here?
A: Its IC50 is 7.94 nM.

Q: `COCCOc1ccc2c(c1-c1ncnc3c(C(=O)NC4CCN(C(=O)C5CC5)CC4)c[nH]c13)OCO2` [Example 169, 4-[5-(2-Methoxy-ethoxy)-benzo[1,3]dioxol-4-yl]-5H-pyrrolo[3,2-d]pyrimidine-7-carboxylic acid (1-cyclopropanecarbonyl-piperidin-4-yl)-amide] was tested. Which IC50 did it give?
A: The IC50 was 1.74 nM.

Q: With `COCCOc1ccc2c(c1-c1ncnc3c(C(=O)NC4CCN(C(=O)COC)CC4)c[nH]c13)OCO2` [Example 170, 4-[5-(2-Methoxy-ethoxy)-benzo[1,3]dioxol-4-yl]-5H-pyrrolo[3,2-d]pyrimidine-7-carboxylic acid [1-(2-methoxy-acetyl)piperidin-4-yl]-amide] as the compound, how does the IC50 read?
A: The IC50 was 13.8 nM.

Q: With `O=C(NC1CCN(C(=O)CO)CC1)c1c[nH]c2c(-c3c(OCC4CC4)ccc4c3OCO4)ncnc12` [Example 171, 4-(5-Cyclopropylmethoxy-benzo[1,3]dioxol-4-yl)-5H-pyrrolo[3,2-d]pyrimidine-7-carboxylic acid [1-(2-hydroxy-ethanoyl)-piperidin-4-yl]amide] as the compound, how does the IC50 read?
A: The IC50 was 0.302 nM.

Q: How did the IC50 turn out when `O=C(CO)N[C@H]1CC[C@H](NC(=O)c2c[nH]c3c(-c4c(OCC5CC5)ccc5c4OCO5)ncnc23)CC1` [Example 172] was run?
A: Its IC50 is 0.112 nM.
